Results as given in the NIST ThermoML archive (doi:10.1016/j.fluid.2014.02.004).

Assay: osmotic coefficient (dimensionless); mn = molality of the nth substance listed, in mol/kg
Conditions: 298.15 K, 101 kPa, Liquid, isopiestic method

NCCCCC(=O)O [5-aminovaleric acid] + O
Conditions	osmotic coefficient
m1 = 0.1414	0.987
m1 = 0.2493	0.9848
m1 = 0.3362	0.9845
m1 = 0.4531	0.9858
m1 = 0.618	0.9849
m1 = 0.6834	0.9874
m1 = 0.9461	1.0019
m1 = 1.397	1.029

NCCCCCC(=O)O [6-aminohexanoic acid] + O
Conditions	osmotic coefficient
m1 = 0.1411	0.9889
m1 = 0.2493	0.9848
m1 = 0.3366	0.9833
m1 = 0.4538	0.9843
m1 = 0.617	0.9865
m1 = 0.6826	0.9886
m1 = 0.9388	1.0097
m1 = 1.388	1.036

NCCCC(=O)O [4-aminobutanoic acid] + O
Conditions	osmotic coefficient
m1 = 0.1412	0.9884
m1 = 0.249	0.986
m1 = 0.3355	0.9866
m1 = 0.453	0.986
m1 = 0.6155	0.9889
m1 = 0.6809	0.991
m1 = 0.944	1.0041
m1 = 1.402	1.026

NCCC(=O)O [3-aminopropanoic acid] + O
Conditions	osmotic coefficient
m1 = 0.1408	0.9912
m1 = 0.2482	0.9892
m1 = 0.335	0.988
m1 = 0.452	0.9882
m1 = 0.6148	0.9901
m1 = 0.6813	0.9905
m1 = 0.9542	0.9934
m1 = 1.43	1.0056
